From the supplement of paper PMC10307832

Tests used:
Assay in all cases: relative viability (nuclei count vs DMSO), 5 days (fraction); higher = more cells survive
[1] = compound: Cc1ccc(C(=O)Nc2cccc(C(F)(F)F)c2)cc1Nc1cncc(C(N)=O)c1 [ALW-II-49-7] + O=C(CCCCCCC(=O)Nc1ccccc1)NO [Vorinostat] (partner 1 µM)
Outline: (§1)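 One day after seeding in 1536-well plates, lung cancer cell lines were dosed by pin tool. Dosing was either single-drug or a fixed anchor-drug dose plus five library-drug doses (not always all listed) in √10 steps. After 5 days, nuclei were stained in one fix-and-stain step and counted on 4× images, and relative viability is the nuclei count of treated wells over that of vehicle wells, given as the median of duplicate plates.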

[2] = compound: Cc1ccc(C(=O)Nc2cccc(C(F)(F)F)c2)cc1Nc1cncc(C(N)=O)c1 [ALW-II-49-7] + N=C(N)NC(=N)NCCc1ccccc1 [Phenformin] (partner 250 µM)
Outline: as §1

[3] = compound: Cc1nc(Nc2ncc(C(=O)Nc3c(C)cccc3Cl)s2)cc(N2CCN(CCO)CC2)n1 [Dasatinib] + O=C(c1cc(Cc2n[nH]c(=O)c3ccccc23)ccc1F)N1CCN(C(=O)C2CC2)CC1 [Olaparib] (partner 8 µM)
Outline: as §1

[4] = compound: Cc1ccc(C(=O)Nc2cccc(C(F)(F)F)c2)cc1Nc1cncc(C(N)=O)c1 [ALW-II-49-7] + NC(=O)Nc1cc(-c2cccc(F)c2)sc1C(=O)N[C@H]1CCCNC1 [AZD7762] (partner 0.2 µM)
Outline: as §1

Cell Line	relative viability ([1]; first compound 0.08 µM)	relative viability ([1]; first compound 0.253 µM)	relative viability ([1]; first compound 0.8 µM)	relative viability ([1]; first compound 2.53 µM)	relative viability ([1]; first compound 8 µM)	relative viability ([2]; first compound 0.08 µM)	relative viability ([2]; first compound 0.253 µM)	relative viability ([2]; first compound 0.8 µM)	relative viability ([2]; first compound 2.53 µM)	relative viability ([2]; first compound 8 µM)	relative viability ([3]; first compound 0.005 µM)	relative viability ([3]; first compound 0.01581 µM)	relative viability ([3]; first compound 0.05 µM)	relative viability ([3]; first compound 0.1581 µM)	relative viability ([3]; first compound 0.5 µM)	relative viability ([4]; first compound 0.08 µM)	relative viability ([4]; first compound 0.253 µM)	relative viability ([4]; first compound 0.8 µM)	relative viability ([4]; first compound 2.53 µM)	relative viability ([4]; first compound 8 µM)
HCC-366	0.49	0.363	0.258	0.343	0.21	0.649	0.623	0.541	0.622	0.611	0.263	0.206	0.217	0.157	0.141	0.264	0.259	0.24	0.245	0.203
HCC-827	0.9	0.803	0.787	0.813	0.883	0.403	0.388	0.399	0.413	0.363	0.595	0.577	0.535	0.209	0.106	0.208	0.241	0.187	0.183	0.19
HOP-62	0.547	0.696	0.588	0.523	0.298	0.585	0.598	0.611	0.696	0.429	0.32	0.381	0.307	0.434	0.204	0.386	0.455	0.648	0.619	0.586
IA-LM	0.998	0.613	0.745	0.29	0.423	–	–	–	–	–	1.06	0.537	0.904	0.706	0.6	–	–	–	–	–
LC-2-ad	0.681	0.763	0.691	0.698	0.528	0.478	0.555	0.58	0.638	0.531	0.752	0.666	0.746	0.573	0.516	0.844	0.824	0.756	0.805	0.93
LCLC-97TM1	0.96	0.683	0.642	0.685	0.49	0.44	0.425	0.451	0.393	0.459	0.468	0.449	0.557	0.393	0.4	0.228	0.418	0.328	0.156	0.179
LCLC-103H	0.79	0.763	0.658	0.71	0.618	0.306	0.343	0.281	0.288	0.335	0.74	0.716	0.718	0.508	0.356	0.742	0.817	0.756	0.649	0.656
NCI-H520	0.782	0.649	0.681	0.696	0.617	0.57	0.604	0.624	0.681	0.562	0.335	0.244	0.237	0.127	0.16	–	–	–	–	–
NCI-H661	0.854	0.859	0.823	0.795	0.79	0.28	0.282	0.278	0.295	0.297	0.731	0.792	0.747	0.618	0.592	–	–	–	–	–
